Read-outs that look alike come from different tables or passages of the source. Starred links: 1 amine or outer side, 2 acyl side, 3 side chain; linkers in the order of their positions; H or OH if unused. Non-standard residues stand in square brackets, D forms with d. Groups on a side chain read outwards from the residue. *: point of attachment. Decanoyl(10-(4-HOOC-PhO)) = O=C(O)c1ccc(OCCCCCCCCCC(=O)*)cc1; Decanoyl(10-O(3-COOH-Ph)) = O=C(O)c1cccc(OCCCCCCCCCC(=O)*)c1; C20 diacid = O=C(O)CCCCCCCCCCCCCCCCCCC(=O)*; C16 diacid = O=C(O)CCCCCCCCCCCCCCC(=O)*; γGlu = O=C(O)[C@H](CCC(=O)[*:2])N[*:1]; Trx = NC[C@H]1CC[C@H](C(=O)O)CC1; AEEA = NCCOCCOCC(=O)O; Aib = CC(C)(N)C(=O)O
How the values were obtained:
[1] = target: T1, human amylin receptor (hAmyR3) (Homo sapiens, UniProt O60896+P30988); assay: Human amylin receptor in vitro potency assay (CRE-luciferase reporter, BHK cells); type: cell-based;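 also: BHK cells expressing human calcitonin receptor plus RAMP3 (amylin-3 receptor) with a CRE-luciferase reporter, agonist activity read as luminescence from cAMP-driven transcription, 7-point serial dilutions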
T1 construct: host or cells: BHK cells (Hollex-1 line: human calcitonin receptor (a) + CRE-Luc), further transfected with human RAMP3

[2] = Pharmacokinetic studies in Beagle dogs after oral administration of SNAC-based tablets; type: in vivo; settings: for Tmax / half-life: male, Beagle
Method: To be able to evaluate oral exposure following tablet dosing, tablet compositions comprising the test substance and SNAC (sodium N-(8-(2-hydroxybenzoyl)amino)caprylate) were prepared by mixing test substance with roller compacted SNAC and magnesium stearate as, e.g., described in WO 2019/149880. The amount of SNAC in the tablet composition was 100-300 mg, the amount of magnesium stearate in the tablet composition was 7.7 mg, and the target amount of each test substance in the tablet composition was 3-4 mg.
Pharmacokinetic (PK) studies in Beagle dogs were conducted to determine the exposure of the GLP-1 receptor-amylin receptor co-agonist after peroral administration.
For the pharmacokinetic studies male Beagle dogs were used, 2-7, or 1 to 5, years of age and weighing approximately 10-15, such as 10-12, kg at the start of the studies. The dogs were group housed in pens (12 hours light: 12 hours dark),and fed individually and restrictedly once daily with Royal Canin Medium Adult dog (Royal Canin Products, China Branch, or Brogaarden A/S, Denmark). Exercise and group social were permitted daily, whenever possible. The dogs were used for repeated pharmacokinetic studies with a suitable wash-out period between successive dosing. An appropriate acclimatisation period was given prior to initiation of the first pharmacokinetic study. All handling, dosing and blood sampling of the animals were performed by trained and skilled staff. Before the studies the dogs were fasted overnight and from 0 to 4 h after dosing. Besides, the dogs were restricted to water 1 hour before dosing until 4 hours after dosing, but otherwise have ad libitum access to water during the whole period.
The tablets used for the p.o. studies described herein were immediate release SNAC-based tablets dosed orally.
The tablets were administered in the following manner: 10 min prior to tablet administration the dogs may be dosed subcutaneously with approximately 3 nmol/kg of SEQ ID NO: 237, tablets were placed in the back of the mouth of the dog to prevent chewing. The mouth was then closed, and 10 mL of tap water was given by a syringe or gavage to facilitate swallowing of the tablet.
Blood was sampled at predefined time points for up till 240 hours, such as up till 10 hr, post dosing to adequately cover the full plasma concentration-time absorption profile of the GLP-1 agonist.
For each blood sampling time point approximately 0.8 mL of whole blood was collected in a 1.5 mL EDTA coated tube, and the tube was gently turned to allowing mixing of the sample with the EDTA. Blood samples (for example 0.8 mL) were collected in EDTA buffer (8 mM) and then centrifuged at 4° C. and 2000 G for 10 minutes. Plasma was pipetted into Micronic tubes on dry ice, and kept at -20° C. until analysis.
Blood samples were taken as appropriate, for example from a venflon in the cephalic vein in the front leg for the first 2 hours and then with syringe from the jugular vein for the rest of the time points (the first few drops were allowed to drain from the venflon to avoid heparin saline from the venflon in the sample).
Plasma concentration of the GLP-1 receptor-amylin receptor co-agonists were determined using LCMS. Individual plasma concentration-time profiles were analysed by a non-compartmental model in WinNonlin v. 5.0 or Phoenix v. 6.2 or 6.3 (Pharsight Inc., Mountain View, CA, USA), or other relevant software for PK analysis.
The individual plasma concentration-time profiles were analysed by non-compartmental analysis (NCA).

[3] = target: T2, human GLP-1 receptor (Homo sapiens, UniProt P43220); assay: Human GLP-1 receptor in vitro potency assay (CRE-luciferase reporter, BHK cells); type: cell-based
T2 construct: expressed in transfected cells; host or cells: BHK (Baby Hamster Kidney) cells, clone BHK 467-12A KZ-10, stably transfected, with CRE-luciferase reporter
Method: It is thus possible to measure GLP-1 receptor activity using a CRE-luciferase reporter gene introduced into Baby Hamster Kidney (BHK) cells co-expressing the GLP-1 receptor.
Cells were aliquoted and stored at -180° C. until use.
Plates were sealed and incubated at room temperature with gentle shaking for 30 minutes while protected from light. Luminescence was detected on a luminescence plate reader e.g. a Synergy 2 (BioTek).

[4] = Table 4a, BHK hAmyR3/CRE-Luc cells, 3 hours, read-out: Human AmyR3 potency [EC50 (pM)]
[5] = Table 4a, BHK cells expressing human GLP-1R, CRE-Luc, 3 hours, read-out: Human GLP-1R potency [EC50 (pM)]
[6] = dogs, oral administration (tablet)
[7] = dog, in vivo, dogs, oral administration (tablet), read-out: Tmax
[8] = dog, in vivo, dogs, oral administration (tablet), read-out: T½ (converted)

T1 sequence (P30988 25-474): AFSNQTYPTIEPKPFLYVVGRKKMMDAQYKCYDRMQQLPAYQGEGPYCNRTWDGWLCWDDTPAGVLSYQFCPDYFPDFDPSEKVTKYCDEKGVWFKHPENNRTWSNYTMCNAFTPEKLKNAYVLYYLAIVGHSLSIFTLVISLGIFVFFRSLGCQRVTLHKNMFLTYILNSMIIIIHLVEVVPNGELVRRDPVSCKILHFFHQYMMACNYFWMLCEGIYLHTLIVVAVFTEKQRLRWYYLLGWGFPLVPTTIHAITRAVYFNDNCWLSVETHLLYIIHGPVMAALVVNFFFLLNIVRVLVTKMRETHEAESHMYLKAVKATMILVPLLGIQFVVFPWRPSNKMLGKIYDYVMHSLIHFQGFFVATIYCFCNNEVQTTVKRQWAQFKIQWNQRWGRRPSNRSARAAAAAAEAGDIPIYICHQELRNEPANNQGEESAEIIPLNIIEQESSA
T1 sequence (O60896 24-148): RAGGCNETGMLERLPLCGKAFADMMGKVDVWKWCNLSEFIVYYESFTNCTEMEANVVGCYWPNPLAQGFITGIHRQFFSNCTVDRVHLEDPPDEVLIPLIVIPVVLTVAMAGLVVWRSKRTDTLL
T2 sequence (P43220 24-463): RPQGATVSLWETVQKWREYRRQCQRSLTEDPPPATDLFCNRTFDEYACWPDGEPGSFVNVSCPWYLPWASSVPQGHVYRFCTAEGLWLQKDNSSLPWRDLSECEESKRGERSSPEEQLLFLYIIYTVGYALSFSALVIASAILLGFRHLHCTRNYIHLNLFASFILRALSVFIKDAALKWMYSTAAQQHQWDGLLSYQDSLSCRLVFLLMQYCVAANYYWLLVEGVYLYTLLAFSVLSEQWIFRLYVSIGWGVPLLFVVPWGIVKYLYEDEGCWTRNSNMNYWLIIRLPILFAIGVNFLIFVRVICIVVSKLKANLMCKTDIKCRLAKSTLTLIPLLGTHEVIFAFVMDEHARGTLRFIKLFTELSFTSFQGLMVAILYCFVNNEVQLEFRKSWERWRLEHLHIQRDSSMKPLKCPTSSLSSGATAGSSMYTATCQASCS

EC50 [1, 4] [pM] | AUC/D ([2]; dog, in vivo, po) [kg·h/L] | Cmax/D ([2]; dog, in vivo, po) [kg/L] | Tmax ([2]; dog, in vivo, po, Tmax (hr)) [h] | half-life ([2]; dog, in vivo, po, T½ (hr)) [h] | EC50 [3, 5] [pM] | Tmax ([2]; dog, plasma, po, dogs, oral administration (tablet), read-out: Tmax) [h] | half-life ([2]; dog, plasma, po, dogs, oral administration (tablet), read-out: T½ (converted)) [h] | Compound | AUC/D [2, 6] [kg·h/L] | Cmax/D [2, 6] [kg/L] | EC50 [1] [pM] | Tmax [2, 7] [h] | half-life [2, 8] [h] | EC50 [3] [pM]
14.1 | 19.71 | 0.3 | 4 | 68 | 6.4 | – | – | H-H[Aib]EGTFTSDVSSYLEGQAAREFIAWLVRGRGQEPK([AEEA-AEEA-γGlu-C20 diacid])GQAPEASELSTAALGRLSAELHELATLPRTETGSGSP-NH2 [Compound 0529] | – | – | – | – | – | –
8.3 | 27.60 | 0.34 | 1.5 | 91 | 5.6 | – | – | H-H[Aib]EGTFTSDVSK([AEEA-AEEA-γGlu-C16 diacid])YLEEQAARK([AEEA-AEEA-γGlu-C16 diacid])FIAWLVRGRQEGGGGGASELSTAALGRLSAELHELATLPRTETGSGSP-NH2 [Compound 0575] | – | – | – | – | – | –
12.1 | 8.71 | 0.22 | 3 | 30 | 5 | – | – | H-H[Aib]EGTFTSDVSSYLEGQAAREFIAWLVRGRGQEPK([AEEA-AEEA-γGlu-Trx-C20 diacid])GQAPEASELSTAALGRLSAELHELATLPRTETGSGSP-NH2 [Compound 0539] | – | – | – | – | – | –
22 | 37.01 | 0.5 | 1.5 | 107 | 3.8 | – | – | H-H[Aib]EGTFTSDVSK([AEEA-AEEA-γGlu-C16 diacid])YLEEQAAREFIAWLVRGRK([AEEA-AEEA-γGlu-C16 diacid])GGGGEASELSTAALGRLSAELHELATLPRTETGSGSP-NH2 [Compound 0528] | – | – | – | – | – | –
10.1 | 28.20 | 0.34 | 1.3 | 94 | 2.9 | – | – | H-H[Aib]EGTFTSDVSK([AEEA-AEEA-γGlu-C16 diacid])YLEEQAARK([AEEA-AEEA-γGlu-C16 diacid])FIEWLVRGRGEGGGGGASELSTAALGRLSAELHELATLPRTETGSGSP-NH2 [Compound 0576] | – | – | – | – | – | –
10.8 | 3.21 | 0.13 | 2 | 21 | 7.6 | – | – | H-H[Aib]EGTFTSDVSSYLEEQAAREFIAWLVRGRK([AEEA-AEEA-γGlu-Trx-C20 diacid])GGEASELSTAALGRLSAELHELATLPRTETGSGSP-NH2 [Compound 0512] | – | – | – | – | – | –
12 | 31.73 | 0.48 | 1.5 | 97 | 15.8 | – | – | H-H[Aib]EGTFTSDK([AEEA-AEEA-γGlu-C16 diacid])SSYLEEQAAREFIAWLVRGRGGGGGEASELSTAALGRLSAELHK([AEEA-AEEA-γGlu-C16 diacid])LATLPRTETGSGSP-NH2 [Compound 0259] | – | – | – | – | – | –
7.7 | 8.72 | 0.14 | 4 | 41 | 6.5 | – | – | H-H[Aib]EGTFTSDVSSYLEEQAAREFIEWLVRGRK([AEEA-AEEA-γGlu-Trx-C20 diacid])GGGGEASELSTAALGRLSAELHELATLPRTETGSGSP-NH2 [Compound 0503] | – | – | – | – | – | –
26.9 | 30.60 | 0.39 | 1.3 | 90 | 2.5 | – | – | H-H[Aib]EGTFTSDVSK([AEEA-AEEA-γGlu-C16 diacid])YLEEQAARK([AEEA-AEEA-γGlu-C16 diacid])FIAWLVRGRQEASELSTAALGRLSAELHELATLPRTETGSGSP-NH2 [Compound 0578] | – | – | – | – | – | –
24 | – | – | – | – | 10.4 | 1 | 21 | H-H[Aib]EGTFTSDVSSYLEEQAAREFIAWLVRGK([AEEA-AEEA-γGlu-Decanoyl(10-O(3-COOH-Ph))])K([AEEA-AEEA-γGlu-Decanoyl(10-O(3-COOH-Ph))])GGGGASELSTAALGRLSAELHELATLPRTETGSGSP-NH2 [Compound 0235] | 3.3 | 0.22 | – | – | – | –
9.3 | 12.77 | 0.38 | 2 | 39 | 7.4 | – | – | H-H[Aib]EGTFTSDVSSYLEEQAARK([AEEA-AEEA-γGlu-C20 diacid])FIAWLVRGGASELSTAALGRLSAELHELATLPRTETGSGSP-NH2 [Compound 0580] | – | – | – | – | – | –
– | – | – | – | – | – | – | – | CC[C@H](C)[C@H](NC(=O)[C@H](Cc1ccccc1)NC(=O)[C@H](CCC(=O)O)NC(=O)[C@H](CCCNC(=N)N)NC(=O)[C@H](C)NC(=O)[C@H](C)NC(=O)[C@H](CCC(N)=O)NC(=O)[C@H](CCC(=O)O)NC(=O)[C@H](CCC(=O)O)NC(=O)[C@H](CC(C)C)NC(=O)[C@H](Cc1ccc(O)cc1)NC(=O)[C@H](CO)NC(=O)[C@H](CO)NC(=O)[C@H](CCCCNC(=O)COCCOCCNC(=O)COCCOCCNC(=O)CC[C@H](NC(=O)[C@H]1CC[C@H](CNC(=O)CCCCCCCCCCCCCCCCCCC(=O)O)CC1)C(=O)O)NC(=O)[C@H](CC(=O)O)NC(=O)[C@H](CO)NC(=O)[C@@H](NC(=O)[C@H](Cc1ccccc1)NC(=O)[C@@H](NC(=O)CNC(=O)[C@H](CCC(=O)O)NC(=O)[C@H](C)NC(=O)[C@@H](N)Cc1c[nH]cn1)[C@@H](C)O)[C@@H](C)O)C(=O)N[C@@H](CCC(=O)O)C(=O)N[C@@H](Cc1c[nH]c2ccccc12)C(=O)N[C@@H](CC(C)C)C(=O)N[C@H](C(=O)N[C@@H](CCCNC(=N)N)C(=O)NCC(=O)N[C@@H](CCCNC(=N)N)C(=O)NCC(=O)N[C@@H](CCC(=O)O)C(=O)N[C@@H](C)C(=O)N[C@@H](CO)C(=O)N[C@@H](CCC(=O)O)C(=O)N[C@@H](CC(C)C)C(=O)N[C@@H](CO)C(=O)N[C@H](C(=O)N[C@@H](C)C(=O)N[C@@H](C)C(=O)N[C@@H](CC(C)C)C(=O)NCC(=O)N[C@@H](CCCNC(=N)N)C(=O)N[C@@H](CC(C)C)C(=O)N[C@@H](CO)C(=O)N[C@@H](C)C(=O)N[C@@H](CCC(=O)O)C(=O)N[C@@H](CC(C)C)C(=O)N[C@@H](Cc1c[nH]cn1)C(=O)N[C@@H](CCC(=O)O)C(=O)N[C@@H](CC(C)C)C(=O)N[C@@H](C)C(=O)N[C@H](C(=O)N[C@@H](CC(C)C)C(=O)N1CCC[C@H]1C(=O)N[C@@H](CCCNC(=N)N)C(=O)N[C@H](C(=O)N[C@@H](CCC(=O)O)C(=O)N[C@H](C(=O)NCC(=O)N[C@@H](CO)C(=O)NCC(=O)N[C@@H](CO)C(=O)N1CCC[C@H]1C(N)=O)[C@@H](C)O)[C@@H](C)O)[C@@H](C)O)[C@@H](C)O)C(C)C [Compound 0431] | 9.75 | 0.29 | 11.9 | 1.5 | 34 | 10.9
– | – | – | – | – | – | – | – | H-HWEGTFTSDVSSYLEEQAAREFIEWLVRGK([AEEA-AEEA-γGlu-Decanoyl(10-(4-HOOC-PhO))])GEGGGGGASELSTAALGRLSK([AEEA-AEEA-γGlu-Decanoyl(10-(4-HOOC-PhO))])ELHELATLPRTETGSGSP-NH2 [Compound 0233] | 8.43 | 0.3 | 182 | 1.5 | 43 | 46.4
19.1 | 37.60 | 0.45 | 1.3 | 93 | 5.6 | – | – | H-H[Aib]EGTFTSDVSK([AEEA-AEEA-γGlu-C16 diacid])YLEEQAARK([AEEA-AEEA-γGlu-C16 diacid])FIEWLVRGRGEASELSTAALGRLSAELHELATLPRTETGSGSP-NH2 [Compound 0577] | – | – | – | – | – | –
